Among the data in ChEMBL document CHEMBL4411322 (J Med Chem, 2019) are IC50 and Ratio IC50 values, retold here.

The target in assay [1] is Integrin alpha-V/beta-5 (Homo sapiens, UniProt P06756+P18084). As to the kind of experiment: Inhibition of human vitronectin binding to human integrin alphavbeta5 receptor after 1 hr by solid-phase binding assay. Format: protein-complex assay.
Assay [2] has as its target Integrin alpha-IIb/beta-3 (Homo sapiens, UniProt P05106+P08514). As to the kind of experiment: Inhibition of human fibrinogen binding to human platelet integrin alpha2b-beta3 receptor after 1 hr by solid-phase binding assay.
The species named for assay [3] is Homo sapiens. As to the kind of experiment: Selectivity ratio of IC50 for human integrin alphavbeta6 receptor to IC50 for human integrin alphavbeta8 receptor.
Assay [4] addresses Integrin alpha-V/beta-6 (Homo sapiens, UniProt P06756+P18564). As to the kind of experiment: Inhibition of LAP binding to human integrin alphavbeta6 receptor after 1 hr by solid-phase binding assay. Format: protein-complex assay. The note with it: read-out: IC50.
Assay [5] has as its target Integrin alpha-V/beta-8 (Homo sapiens, UniProt P06756+P26012). As to the kind of experiment: Inhibition of LAP binding to human integrin alphavbeta8 receptor after 1 hr by solid-phase binding assay. Format: protein-complex assay. The note with it: read-out: IC50.

Non-standard residues stand in square brackets, D forms with d. Residues, ends and D or L forms follow the SMILES beside them.

Chain of Integrin alpha-V/beta-6 (P06756 31-889 limits assumed): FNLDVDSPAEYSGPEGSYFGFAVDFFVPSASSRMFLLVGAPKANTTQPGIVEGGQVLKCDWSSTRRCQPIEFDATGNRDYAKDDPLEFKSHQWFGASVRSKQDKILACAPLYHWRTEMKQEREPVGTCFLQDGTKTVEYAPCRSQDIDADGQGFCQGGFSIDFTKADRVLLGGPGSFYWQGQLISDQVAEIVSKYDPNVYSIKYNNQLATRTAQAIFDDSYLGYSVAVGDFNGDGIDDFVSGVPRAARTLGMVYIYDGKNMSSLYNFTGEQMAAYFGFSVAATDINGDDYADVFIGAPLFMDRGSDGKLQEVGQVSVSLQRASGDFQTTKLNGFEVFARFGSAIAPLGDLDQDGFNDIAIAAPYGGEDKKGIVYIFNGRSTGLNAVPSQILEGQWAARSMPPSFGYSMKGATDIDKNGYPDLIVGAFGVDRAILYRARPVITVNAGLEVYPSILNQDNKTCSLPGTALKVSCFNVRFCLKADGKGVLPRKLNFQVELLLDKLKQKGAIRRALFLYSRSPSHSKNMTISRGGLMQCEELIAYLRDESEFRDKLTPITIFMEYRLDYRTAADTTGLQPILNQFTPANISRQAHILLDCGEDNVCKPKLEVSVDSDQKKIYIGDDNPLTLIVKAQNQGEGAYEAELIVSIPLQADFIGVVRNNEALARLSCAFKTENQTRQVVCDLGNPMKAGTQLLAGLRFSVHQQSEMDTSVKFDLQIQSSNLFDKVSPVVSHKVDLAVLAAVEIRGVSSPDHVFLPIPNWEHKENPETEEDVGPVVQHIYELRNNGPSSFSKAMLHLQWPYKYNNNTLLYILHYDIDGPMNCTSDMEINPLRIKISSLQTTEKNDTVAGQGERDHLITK
Chain of Integrin alpha-V/beta-6 (P06756 891-1048 limits assumed): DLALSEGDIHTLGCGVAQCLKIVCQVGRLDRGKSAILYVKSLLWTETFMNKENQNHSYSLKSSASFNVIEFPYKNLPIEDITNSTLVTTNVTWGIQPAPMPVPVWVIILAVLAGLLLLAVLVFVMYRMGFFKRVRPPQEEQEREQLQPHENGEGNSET
Chain of Integrin alpha-V/beta-6 (P18564 22-788 limits assumed): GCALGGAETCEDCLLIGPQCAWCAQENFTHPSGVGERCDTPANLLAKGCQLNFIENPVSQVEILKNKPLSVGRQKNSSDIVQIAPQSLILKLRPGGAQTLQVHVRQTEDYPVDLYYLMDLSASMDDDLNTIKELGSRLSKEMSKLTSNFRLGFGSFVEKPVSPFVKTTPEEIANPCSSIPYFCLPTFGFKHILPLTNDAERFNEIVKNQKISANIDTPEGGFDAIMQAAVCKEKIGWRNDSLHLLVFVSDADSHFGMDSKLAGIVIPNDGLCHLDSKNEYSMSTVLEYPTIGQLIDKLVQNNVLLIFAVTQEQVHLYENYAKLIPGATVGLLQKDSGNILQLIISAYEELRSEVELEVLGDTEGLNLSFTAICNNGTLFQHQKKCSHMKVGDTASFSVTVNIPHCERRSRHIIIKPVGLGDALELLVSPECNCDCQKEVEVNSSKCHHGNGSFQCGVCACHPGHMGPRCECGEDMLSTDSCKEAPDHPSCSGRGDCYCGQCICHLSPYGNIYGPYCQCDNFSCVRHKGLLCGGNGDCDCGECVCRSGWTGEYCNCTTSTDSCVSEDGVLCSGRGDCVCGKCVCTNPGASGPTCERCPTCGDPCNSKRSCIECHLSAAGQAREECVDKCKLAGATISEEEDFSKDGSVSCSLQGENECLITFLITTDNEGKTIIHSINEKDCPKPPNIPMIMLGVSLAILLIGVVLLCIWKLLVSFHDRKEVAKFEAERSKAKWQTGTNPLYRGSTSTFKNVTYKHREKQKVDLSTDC
Chain of Integrin alpha-V/beta-8 (P06756 31-889 limits assumed): as the sequence (P06756 31-889 limits assumed) above
Chain of Integrin alpha-V/beta-8 (P06756 891-1048 limits assumed): as the sequence (P06756 891-1048 limits assumed) above
Chain of Integrin alpha-V/beta-8 (P26012 43-769 limits assumed): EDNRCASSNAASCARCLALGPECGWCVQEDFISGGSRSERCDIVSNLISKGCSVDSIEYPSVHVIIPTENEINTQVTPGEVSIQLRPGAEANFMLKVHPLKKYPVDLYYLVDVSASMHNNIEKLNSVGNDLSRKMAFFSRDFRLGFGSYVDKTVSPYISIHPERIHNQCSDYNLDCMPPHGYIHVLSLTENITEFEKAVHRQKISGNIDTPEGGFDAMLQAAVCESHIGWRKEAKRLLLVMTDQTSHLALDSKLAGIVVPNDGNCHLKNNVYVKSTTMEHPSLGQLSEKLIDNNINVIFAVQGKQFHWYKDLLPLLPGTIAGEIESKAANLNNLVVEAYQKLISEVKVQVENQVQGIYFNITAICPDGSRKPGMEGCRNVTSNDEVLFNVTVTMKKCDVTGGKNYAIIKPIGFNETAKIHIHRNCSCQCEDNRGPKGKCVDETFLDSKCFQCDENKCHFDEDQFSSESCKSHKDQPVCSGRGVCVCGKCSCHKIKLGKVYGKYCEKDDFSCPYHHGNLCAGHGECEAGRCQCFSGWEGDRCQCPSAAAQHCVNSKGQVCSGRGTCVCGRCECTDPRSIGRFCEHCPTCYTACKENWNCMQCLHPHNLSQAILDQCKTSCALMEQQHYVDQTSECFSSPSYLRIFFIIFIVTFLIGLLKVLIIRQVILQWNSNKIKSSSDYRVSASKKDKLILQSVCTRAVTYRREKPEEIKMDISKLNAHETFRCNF
Chain of Integrin alpha-V/beta-5 (P06756 31-889 limits assumed): as the sequence (P06756 31-889 limits assumed) above
Chain of Integrin alpha-V/beta-5 (P06756 891-1048 limits assumed): as the sequence (P06756 891-1048 limits assumed) above
Chain of Integrin alpha-V/beta-5 (P18084 24-799 limits assumed): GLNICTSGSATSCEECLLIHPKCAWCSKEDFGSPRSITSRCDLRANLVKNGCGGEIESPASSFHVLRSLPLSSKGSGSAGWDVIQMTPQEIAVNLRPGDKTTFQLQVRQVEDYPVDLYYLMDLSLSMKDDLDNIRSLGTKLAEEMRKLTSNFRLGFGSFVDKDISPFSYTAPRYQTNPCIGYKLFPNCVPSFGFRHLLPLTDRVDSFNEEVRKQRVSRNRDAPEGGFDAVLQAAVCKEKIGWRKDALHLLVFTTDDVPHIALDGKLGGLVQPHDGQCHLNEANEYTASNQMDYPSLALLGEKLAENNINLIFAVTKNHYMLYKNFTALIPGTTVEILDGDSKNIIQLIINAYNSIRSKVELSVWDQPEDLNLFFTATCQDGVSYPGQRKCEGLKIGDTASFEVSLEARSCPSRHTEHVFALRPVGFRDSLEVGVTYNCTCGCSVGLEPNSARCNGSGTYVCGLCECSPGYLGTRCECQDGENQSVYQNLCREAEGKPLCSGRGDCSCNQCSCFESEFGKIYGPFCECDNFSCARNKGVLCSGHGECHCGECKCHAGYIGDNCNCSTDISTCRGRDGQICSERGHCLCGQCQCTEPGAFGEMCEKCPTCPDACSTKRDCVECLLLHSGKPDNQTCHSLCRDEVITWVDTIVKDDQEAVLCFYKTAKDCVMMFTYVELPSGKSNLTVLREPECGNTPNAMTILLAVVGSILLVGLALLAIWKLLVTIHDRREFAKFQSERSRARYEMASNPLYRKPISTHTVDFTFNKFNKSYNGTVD

With `CC(C)C[C@@H]1NC(=O)[C@H](CC(=O)O)NC(=O)CNC(=O)[C@H](CCCNC(=N)N)NC(=O)[C@H](Cc2ccccc2)NC(=O)[C@H](CCCCN)N(C)C(=O)[C@H]2CCCN2C(=O)[C@H](Cc2ccccc2)NC(=O)[C@H](C)NC1=O`, the IC50 in assay [1] and in assay [2] was greater than 1 µM each time.

For the compound `CC(C)C[C@@H]1NC(=O)[C@H](CC(=O)O)NC(=O)CNC(=O)[C@H](CCCNC(=N)N)NC(=O)[C@H](C)NC(=O)[C@@H]2CCCN2C(=O)[C@H]2CCCN2C(=O)[C@H](Cc2ccccc2)NC(=O)[C@H](C)NC1=O` (cyclo(ARGDLAF[dP]P)), the half-inhibitory concentration (IC50) in assay [1] and in assay [2] was greater than 1 µM each time.

Take `CC[C@H](C)[C@@H]1NC(=O)[C@H](C)NC(=O)[C@@H]2CCCN2C(=O)[C@H]2CCCN2C(=O)[C@H](CC(C)C)NC(=O)[C@H](CC(=O)O)NC(=O)CNC(=O)[C@H](CCCNC(=N)N)NC1=O`: the Ratio IC50 in assay [3] is 26.1. The concentration for half-maximal inhibition (IC50) in assay [4] is 0.0402 µM; in assay [5], 0.00154 µM.

With `CC(C)C[C@@H]1NC(=O)[C@H](C)NC(=O)[C@H](C)NC(=O)[C@@H]2CCCN2C(=O)[C@H]2CCCN2C(=O)[C@H](CC(C)C)NC(=O)[C@H](CC(=O)O)NC(=O)[C@H]([C@@H](C)O)NC(=O)[C@H](CCCNC(=N)N)NC(=O)[C@H](C)NC1=O`, in assay [3], the Ratio IC50 was found to be 5.7. The IC50 in assay [4] turned out to be 0.72 µM; in assay [5] it was 0.127 µM.

On to `CC(C)C[C@@H]1NC(=O)[C@H](CC(=O)O)NC(=O)CNC(=O)[C@H](CCCNC(=N)N)NC(=O)[C@H](C)NC(=O)[C@H](C)NC(=O)[C@@H]2CCCN2C(=O)[C@H]2CCCN2C1=O`, for which the Ratio IC50 in assay [3] stood at 14.1. For the same compound, the figures for the IC50 in assay [4] and in assay [5] were 0.114 µM and 0.0081 µM, respectively.

For the compound `CC(C)C[C@@H]1NC(=O)[C@H](C)NC(=O)[C@H](CC(C)C)N(C)C(=O)[C@H]2CCCN2C(=O)[C@H](CC(C)C)NC(=O)[C@H](CC(=O)O)NC(=O)CNC(=O)[C@H](CCCNC(=N)N)NC1=O`, in assay [3], the Ratio IC50 turned out to be 5.3. The IC50 in assay [4] was 0.18 µM; in assay [5], 0.034 µM.

Consider `CC(C)C[C@@H]1NC(=O)[C@H](C)NC(=O)[C@H](C)NC(=O)[C@@H]2CCCN2C(=O)[C@H]2CCCN2C(=O)[C@H](CC(C)C)NC(=O)[C@H](CC(=O)O)NC(=O)CNC(=O)[C@H](CCCNC(=N)N)NC(=O)[C@H](C)NC1=O`, for which, in assay [3], the Ratio IC50 is 2.9. In addition, the IC50 amounted to 0.14 µM in assay [4] and 0.0474 µM in assay [5].

`CC(C)C[C@@H]1NC(=O)[C@H](C)NC(=O)[C@@H]2CCCN2C(=O)[C@H]2CCCN2C(=O)[C@H](CC(C)C)NC(=O)[C@H](CC(=O)O)NC(=O)CNC(=O)[C@H](CCCNC(=N)N)NC1=O` (cyclo(RGDL[dP]PAL)): the Ratio IC50 in assay [3] turned out to be 24. Further, the IC50 came out at 0.0318 µM in assay [4] and 0.00131 µM in assay [5].

Turning to `CC(=O)NCCCC[C@@H]1C(=O)N2CCC[C@H]2C(=O)NCC(=O)N[C@@H](CC(C)C)C(=O)N[C@@H](CCCNC(=N)N)C(=O)NCC(=O)N[C@@H](CC(=O)O)C(=O)N[C@@H](CC(C)C)C(=O)N1C`, the Ratio IC50 in assay [3] is 3.8. Also, the half-inhibitory concentration (IC50) was determined as 0.215 µM in assay [4] and 0.057 µM in assay [5].

As to `CC(C)C[C@@H]1NC(=O)[C@H](CC(=O)O)NC(=O)CNC(=O)[C@H](CCCNC(=N)N)NC(=O)[C@H](C)NC(=O)[C@H](C)NC(=O)[C@H](C)NC(=O)[C@H](C)NC(=O)[C@@H]2CCCN2C(=O)[C@H]2CCCN2C1=O`, in assay [3], the Ratio IC50 is 1.7. In addition, the half-maximal inhibitory concentration (IC50) in assay [4] was determined as 0.274 µM; in assay [5], 0.166 µM.

Regarding `CC(C)C[C@@H]1NC(=O)[C@H](CC(=O)O)NC(=O)CNC(=O)[C@H](CCCNC(=N)N)NC(=O)[C@H](c2ccccc2)NC(=O)[C@H](C)NC(=O)[C@@H]2CCCN2C(=O)[C@H]2CCCN2C1=O`, the Ratio IC50 in assay [3] worked out at 4.6. The IC50 was determined as 0.0296 µM in assay [4] and 0.0064 µM in assay [5].

Take `CC(=O)NC1C[C@H]2C(=O)NCC(=O)N[C@@H](CC(C)C)C(=O)N[C@@H](CCCNC(=N)N)C(=O)NCC(=O)N[C@@H](CC(=O)O)C(=O)N[C@@H](CC(C)C)C(=O)N3CCC[C@@H]3C(=O)N2C1` (stereo partly specified): the Ratio IC50 in assay [3] was 21. For the same compound, the IC50 came out at 0.223 µM in assay [4] and 0.0105 µM in assay [5].

Take `CCCC[C@@H]1NC(=O)[C@H](CC(=O)O)NC(=O)CNC(=O)[C@H](CCCNC(=N)N)NC(=O)[C@H](Cc2ccccc2)NC(=O)[C@H](C)NC(=O)[C@@H]2CCCN2C(=O)[C@H]2CCCN2C1=O`: in assay [3], the Ratio IC50 worked out at 3.7. Moreover, the half-maximal inhibitory concentration (IC50) in assay [4] stood at 0.142 µM; in assay [5], 0.0381 µM.

Consider `CC(C)C[C@@H]1NC(=O)[C@@H]2CCCN2C(=O)[C@H]2CCCN2C(=O)[C@H](CC(C)C)NC(=O)[C@H](CC(=O)O)NC(=O)CNC(=O)[C@H](CCCNC(=N)N)NC(=O)[C@H](C)NC1=O`, for which the Ratio IC50 in assay [3] turned out to be 3.7. Moreover, the IC50 in assay [4] was 0.42 µM; in assay [5], 0.114 µM.

Turning to `CC(C)C[C@@H]1NC(=O)[C@H](CC(=O)O)NC(=O)CNC(=O)[C@H](CCCNC(=N)N)NC(=O)[C@H](Cc2ccccc2)NC(=O)[C@H](C)NC(=O)[C@@H]2CCCN2C(=O)[C@H]2CCCN2C1=O`, the Ratio IC50 in assay [3] is 44.1. Further, the results for the IC50 in assay [4] and in assay [5] were 0.0813 µM and 0.00183 µM, respectively.

Consider `CC(C)C[C@@H]1NC(=O)[C@H](CC(=O)O)NC(=O)CNC(=O)[C@H](CCCNC(=N)N)NC(=O)[C@@H](C)NC(=O)[C@H](C)NC(=O)[C@@H]2CCCN2C(=O)[C@H]2CCCN2C1=O`, for which, in assay [3], the Ratio IC50 is 1.9. The IC50 in assay [4] turned out to be 0.112 µM; in assay [5] it was 0.0594 µM.

Turning to `CC(C)C[C@@H]1NC(=O)[C@H](C)NC(=O)[C@@H]2CCCN2C(=O)[C@H]2CCCN2C(=O)[C@H](CC(C)C)NC(=O)[C@H](CC(=O)O)NC(=O)CNC(=O)[C@H](CCCNC(=N)N)NC(=O)[C@H](C)NC(=O)[C@H](C)NC1=O`, in assay [3], the Ratio IC50 is 1.6. The values for the concentration for half-maximal inhibition (IC50) in assay [4] and in assay [5] were 0.43 µM and 0.27 µM, respectively.

As for `CC[C@H](C)[C@@H]1NC(=O)[C@H](CC(=O)O)NC(=O)CNC(=O)[C@H](CCCNC(=N)N)NC(=O)[C@H](Cc2ccccc2)NC(=O)[C@H](C)NC(=O)[C@@H]2CCCN2C(=O)[C@H]2CCCN2C1=O`, the Ratio IC50 in assay [3] was 4.2. The IC50 came out at 0.707 µM in assay [4] and 0.169 µM in assay [5].

For `CCCCCCNC1C[C@H]2C(=O)NCC(=O)N[C@@H](CC(C)C)C(=O)N[C@@H](CCCNC(=N)N)C(=O)NCC(=O)N[C@@H](CC(=O)O)C(=O)N[C@@H](CC(C)C)C(=O)N3CCC[C@@H]3C(=O)N2C1` (stereo partly specified), the Ratio IC50 in assay [3] is 16. The IC50 in assay [4] came to 0.204 µM; in assay [5] it was 0.0128 µM.

In the case of `CC(C)C[C@@H]1NC(=O)[C@H](CC(=O)O)NC(=O)CNC(=O)[C@H](CCCNC(=N)N)NC(=O)CNC(=O)[C@H](C)NC(=O)[C@@H]2CCCN2C(=O)[C@H]2CCCN2C1=O`, in assay [3], the Ratio IC50 is 2.7. Further, the values for the IC50 in assay [4] and in assay [5] were 0.0424 µM and 0.0159 µM, respectively.

For `CC(C)C[C@@H]1NC(=O)[C@H](C)NC(=O)[C@@H]2CCCN2C(=O)[C@@H](C(C)C)N(C)C(=O)[C@H](CC(C)C)NC(=O)[C@H](CC(=O)O)NC(=O)CNC(=O)[C@H](CCCNC(=N)N)NC1=O`, the Ratio IC50 in assay [3] worked out at 1.6. Also, the IC50 in assay [4] came out at 0.031 µM; in assay [5], 0.019 µM.
